Square brackets hold non-standard residues; d marks the D form. Peptide text beside a SMILES is read from it. Nle = CCCC[C@H](N)C(=O)O

One series relates to small intestine. The series can be described thus: Intestine weight model in rats. The series is classed as in vivo, SD rats. The settings on record: modified peptides; two injections on days 1 & 3 at 1 mg/kg; intestine weight on day 6. How it is done: In the pharmacology study, the conjugates were injected subcutaneously twice, on days 1 and 3 at 1 mg/kg (peptide dose) and intestine weight was performed on day 6. In addition to the PEGylated conjugates, GLP-2-Gly2 was injected at the same dose and regimen for comparison. The average of the intestine weight of each group was compared to that of the vehicle group.
In a different study, several of the PEGylated teduglutide were injected as a single dose at 1 mg/kg and the intestine weight performed on day 6.
Pharmacology and pharmacokinetic studies were performed with the most promising GLP-2 variants to evaluate their efficacy and longevity, respectively. The intestine weight model in rats was conducted to evaluate efficacy, by measuring percent increase of the intestine weight of treated animals over the vehicle group. In this study, the peptides were injected twice, on days 1 and 3 at 1 mg/kg and the intestine weight was conducted on day 6.
PEG20-FMS-V6, PEG20-Fmoc-V6 and PEG40-FMS-V6 were injected once at 1 mg/kg dose on day 1, while group D was also injected twice on days 1 & 3 at 1 mg/kg. The intestine weight was performed on day 6.
Three different reversible PEGylated GLP-2 variants using mutated peptide #4 were injected at 2 mg/kg (peptide dose), once every 6 days for 12 days. On the 12th day the intestine was weighted and compared to the control group. PEG30-FMS-V4 was injected at 0.5 mg/kg as well to evaluate the efficacy dose range.
In addition to PEG30-FMS-V4 and PEG30-Fmoc-V4 that have been pharmacology evaluated by small intestinal weight evaluation (As shown in Example 5), four other reversible PEGylated variant 4 (“V4”) conjugates and two reversible linker-V4 conjugates were synthesized. All the above were injected to 6 normal SD rats/group once at 2 mg/kg (peptide dose), while on the 6th day, animals were scarified, and the small intestine was weighted followed by histopathology evaluation. […] Therefore, slices from three areas of the intestine (duodenum, jejunum and ilium) were stained with hematoxylin and eosin and at least 7 Crypts+Villi length/slice were measured. The averaged Villi+Crypt length of each treatment group (n=6) was compared to the vehicle group (negative control) and calculated as percentage increase over vehicle.
Additional studies were conducted to evaluate the efficacy of the V4 peptide and the reversible MAL-FMS-V4. The long acting effect of V4 and the conjugates were evaluated at Day 6 and Day 10 following treatment (Study reference 15203). All test groups (n=9) were injected SC with 2 mg/kg peptide content at Day 1. At Days 6 and 10, animals were sacrificed and the small intestine underwent histopathology evaluation (6 animals for Day 6, 3 animals for Day 10). FIGS. 12 and 13 show the pharmacology effect of different V4 conjugates and Apraglutide and Glepaglutide as measured by the percent increase of small intestine weight and crypts plus villi length over vehicle, respectively.
To further evaluate the pharmacology efficacy of V4 and Cys-FMS-V4, an experiment was performed to test their acute and prolonged effect on the small intestine (Study reference 15205). In addition, V4 and Cys-FMS-V4 were administrated as a single SC injection on Day 1 at 3 different doses (0.5, 2.0 or 8.0 mg/kg peptide content, 6 rats per group) to assess the dose dependence effect. The pharmacological effect on small intestine weight and villi plus crypts length was measured at Days 3, 7 and 14, and the results are presented in FIGS. 15 and 16. […] It should be noted that this acute response was higher for V4 compared to Cys-FMS-V4 at all 3 dose levels.

Series [1] in a line: Pharmacokinetics of modified GLP-2 variants in rats. The conditions noted are these: rat, serum, peptide dose 15 mg/kg. Format: in vivo.
Series [2] is described as follows: Stability of GLP-2 analogues on incubation at 37° C. (appearance, O.D. reading, RP-HPLC). The series is classed as physicochemical. The settings on record: following 48 h incubation at 37° C.; for Stability via RP-HPLC main peak: change of main peak. How it is done:
The GLP-2 analogues were tested for stability via appearance, O.D. reading (A.280, and A.325) and RP-HPLC (purity, and peak area) following t=0, 1 day, and 48 h incubation at 37° C.

Series [3] deals with T1, GLP-2 receptor (Homo sapiens, UniProt O95838).
T1 sequence (O95838 1-553): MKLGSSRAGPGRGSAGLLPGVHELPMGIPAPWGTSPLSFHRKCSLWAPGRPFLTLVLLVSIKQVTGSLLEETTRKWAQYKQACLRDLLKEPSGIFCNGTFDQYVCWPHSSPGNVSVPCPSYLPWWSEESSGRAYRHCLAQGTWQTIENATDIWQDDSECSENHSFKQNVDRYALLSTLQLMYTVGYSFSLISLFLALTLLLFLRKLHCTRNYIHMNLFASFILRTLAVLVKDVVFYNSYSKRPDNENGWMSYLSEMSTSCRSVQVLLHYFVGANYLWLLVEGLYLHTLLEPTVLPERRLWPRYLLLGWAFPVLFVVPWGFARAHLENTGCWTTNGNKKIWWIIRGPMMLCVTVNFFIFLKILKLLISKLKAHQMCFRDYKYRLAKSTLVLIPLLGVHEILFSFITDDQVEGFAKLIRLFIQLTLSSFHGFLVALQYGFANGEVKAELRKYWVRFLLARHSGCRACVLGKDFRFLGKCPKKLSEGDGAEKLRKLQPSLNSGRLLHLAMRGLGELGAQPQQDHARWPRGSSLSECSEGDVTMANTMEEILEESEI
The series can be described thus: GLP-2 receptor Cell Based Assay (CBA). The conditions noted are these: Table 7.
Experimental: Evaluation of in vitro binding affinity of the different peptides was assessed by using Cell Based Assay (CBA) in the presence of escalating doses of the different peptides.

Series [4] in a line: Solubility and stability in different buffer systems, concentrations, incubation and freeze-thaw. Format: physicochemical. The conditions noted are these: Histidine and NaPi, pH 6.8 to 7.5; 1-10 mg/mL; up to 3 days at 37° C.; up to three freeze-thaw cycles.
In series [5] the target is T2, GLP-2 receptor (UniProt O95838 1-553, limits assumed).
T2 sequence (looked up): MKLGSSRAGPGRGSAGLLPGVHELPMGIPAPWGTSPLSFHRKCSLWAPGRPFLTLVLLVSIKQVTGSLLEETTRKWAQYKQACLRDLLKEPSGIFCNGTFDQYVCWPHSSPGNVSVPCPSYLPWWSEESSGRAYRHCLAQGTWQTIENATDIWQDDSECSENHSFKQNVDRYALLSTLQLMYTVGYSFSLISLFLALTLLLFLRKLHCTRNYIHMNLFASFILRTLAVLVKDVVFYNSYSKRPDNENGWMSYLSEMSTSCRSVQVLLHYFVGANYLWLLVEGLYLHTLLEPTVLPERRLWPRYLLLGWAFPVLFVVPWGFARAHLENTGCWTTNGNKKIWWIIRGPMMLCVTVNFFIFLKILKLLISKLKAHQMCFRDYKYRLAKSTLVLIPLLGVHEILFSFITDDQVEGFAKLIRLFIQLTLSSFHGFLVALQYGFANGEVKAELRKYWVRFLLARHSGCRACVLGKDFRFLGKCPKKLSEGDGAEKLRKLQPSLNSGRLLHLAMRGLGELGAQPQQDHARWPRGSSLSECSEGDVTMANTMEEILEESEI
Nature of the series: cell-based or functional assay.

The target in series [6] is T2, GLP-2 receptor. The series can be described thus: cell-based or functional assay. This is another data set of the same source.

By half-life is commonly meant how long it takes for the measured level to halve. A high value points to slow loss. With `CCCC[C@H](NC(=O)[C@H](CCC(=O)O)NC(=O)[C@H](CC(=O)O)NC(=O)[C@H](CO)NC(=O)[C@H](Cc1ccccc1)NC(=O)[C@H](CO)NC(=O)CNC(=O)[C@H](CCC(=O)O)NC(=O)CNC(=O)[C@@H](N)Cc1c[nH]cn1)C(=O)N[C@@H](CC(N)=O)C(=O)N[C@H](C(=O)N[C@H](C(=O)N[C@@H](CC(C)C)C(=O)N[C@@H](CC(=O)O)C(=O)N[C@@H](Cc1ccc(O)cc1)C(=O)N[C@@H](CC(C)C)C(=O)N[C@@H](C)C(=O)N[C@@H](C)C(=O)N[C@@H](CCCNC(=N)N)C(=O)N[C@@H](CC(=O)O)C(=O)N[C@@H](Cc1ccccc1)C(=O)N[C@H](C(=O)N[C@@H](CC(N)=O)C(=O)N[C@@H](Cc1c[nH]c2ccccc12)C(=O)N[C@@H](CC(C)C)C(=O)N[C@H](C(=O)N[C@@H](CCC(N)=O)C(=O)N[C@H](C(=O)N[C@@H](CCCCN)C(=O)N[C@H](C(=O)N[C@H](C(=O)N[C@@H](CC(=O)O)C(N)=O)[C@@H](C)O)[C@@H](C)CC)[C@@H](C)O)[C@@H](C)CC)[C@@H](C)CC)[C@@H](C)CC)[C@@H](C)O` [Variant 5] (H-HGEGSFSDE[Nle]NTILDYLAARDFINWLIQTKITD-NH2), the “Increase of intestine weight over vehicle (%)” value (from here on “Increase … (%)”) in the series on small intestine was determined as 10%. In addition, the half-life in series [1] is 6.5 h. Also, the Solubility via appearance result in series [2] is reported as “V5: clear”. The “EC50 Ratio to Teduglutide” value at GLP-2 receptor [3] is 2.4.
`CCCC[C@H](NC(=O)[C@H](CCC(=O)O)NC(=O)[C@H](CC(=O)O)NC(=O)[C@H](CO)NC(=O)[C@H](Cc1ccccc1)NC(=O)[C@H](CO)NC(=O)CNC(=O)[C@H](CCC(=O)O)NC(=O)CNC(=O)[C@@H](N)Cc1c[nH]cn1)C(=O)N[C@@H](CC(N)=O)C(=O)N[C@H](C(=O)N[C@H](C(=O)N[C@@H](CC(C)C)C(=O)N[C@@H](CC(=O)O)C(=O)N[C@@H](CC(C)C)C(=O)N[C@@H](CC(C)C)C(=O)N[C@@H](C)C(=O)N[C@@H](C)C(=O)N[C@@H](CCCNC(=N)N)C(=O)N[C@@H](CC(=O)O)C(=O)N[C@@H](Cc1ccccc1)C(=O)N[C@H](C(=O)N[C@@H](CC(N)=O)C(=O)N[C@@H](Cc1c[nH]c2ccccc12)C(=O)N[C@@H](CC(C)C)C(=O)N[C@H](C(=O)N[C@@H](CCC(N)=O)C(=O)N[C@H](C(=O)N[C@@H](CCCCN)C(=O)N[C@H](C(=O)N[C@H](C(=O)N[C@@H](CC(=O)O)C(=O)O)[C@@H](C)O)[C@@H](C)CC)[C@@H](C)O)[C@@H](C)CC)[C@@H](C)CC)[C@@H](C)CC)[C@@H](C)O` [Variant 6] (H-HGEGSFSDE[Nle]NTILDLLAARDFINWLIQTKITD-OH): the “Increase … (%)” value with small intestine is reported as 43%. Also, the half-life in series [1] is 12.1 h. Besides, in series [2], the Solubility via appearance entry was “V6: clear” and the “Stability via RP-HPLC main peak” value was “(~1.5%)”. The “CMC perspective, combining purity and solubility” value in series [4] is given as “outperformed the rest of the peptides”. The “EC50 Ratio to Teduglutide” value on GLP-2 receptor [3] is given as 3.8.
Take `CCCC[C@H](NC(=O)[C@H](CCC(=O)O)NC(=O)[C@H](CC(=O)O)NC(=O)[C@H](CO)NC(=O)[C@H](Cc1ccccc1)NC(=O)[C@H](CO)NC(=O)CNC(=O)[C@H](CCC(=O)O)NC(=O)CNC(=O)[C@@H](N)Cc1c[nH]cn1)C(=O)N[C@@H](CC(N)=O)C(=O)N[C@H](C(=O)N[C@H](C(=O)N[C@@H](CC(C)C)C(=O)N[C@@H](CC(=O)O)C(=O)N[C@@H](Cc1ccc(O)cc1)C(=O)N[C@@H](CC(C)C)C(=O)N[C@@H](C)C(=O)N[C@@H](C)C(=O)N[C@@H](CCCNC(=N)N)C(=O)N[C@@H](CC(=O)O)C(=O)N[C@@H](Cc1ccccc1)C(=O)N[C@H](C(=O)N[C@@H](CC(N)=O)C(=O)N[C@@H](Cc1c[nH]c2ccccc12)C(=O)N[C@@H](CC(C)C)C(=O)N[C@H](C(=O)N[C@@H](CCC(N)=O)C(=O)N[C@H](C(=O)N[C@@H](CCCCN)C(=O)N[C@H](C(=O)N[C@H](C(=O)N[C@@H](CC(=O)O)C(=O)O)[C@@H](C)O)[C@@H](C)CC)[C@@H](C)O)[C@@H](C)CC)[C@@H](C)CC)[C@@H](C)CC)[C@@H](C)O` [Variant 7] (H-HGEGSFSDE[Nle]NTILDYLAARDFINWLIQTKITD-OH): the “Increase … (%)” value with small intestine was 12%. Also, the half-life in series [1] is 5.8 h. In series [2], the Solubility via appearance entry is on record as “V7: clear” and the “Stability via RP-HPLC main peak” value is recorded as “(no change”. The “CMC perspective, combining purity and solubility” value in series [4] was “outperformed the rest of the peptides”. The “EC50 Ratio to Teduglutide” value at GLP-2 receptor [3] was determined as 3.0.

B1: GLP-2 Variant #4 (peptide)
peptide: H-HGEGSFSDE[Nle]NTILDLLAARDFINWLIQTKITD-NH2
SMILES: CCCC[C@H](NC(=O)[C@H](CCC(=O)O)NC(=O)[C@H](CC(=O)O)NC(=O)[C@H](CO)NC(=O)[C@H](Cc1ccccc1)NC(=O)[C@H](CO)NC(=O)CNC(=O)[C@H](CCC(=O)O)NC(=O)CNC(=O)[C@@H](N)Cc1c[nH]cn1)C(=O)N[C@@H](CC(N)=O)C(=O)N[C@H](C(=O)N[C@H](C(=O)N[C@@H](CC(C)C)C(=O)N[C@@H](CC(=O)O)C(=O)N[C@@H](CC(C)C)C(=O)N[C@@H](CC(C)C)C(=O)N[C@@H](C)C(=O)N[C@@H](C)C(=O)N[C@@H](CCCNC(=N)N)C(=O)N[C@@H](CC(=O)O)C(=O)N[C@@H](Cc1ccccc1)C(=O)N[C@H](C(=O)N[C@@H](CC(N)=O)C(=O)N[C@@H](Cc1c[nH]c2ccccc12)C(=O)N[C@@H](CC(C)C)C(=O)N[C@H](C(=O)N[C@@H](CCC(N)=O)C(=O)N[C@H](C(=O)N[C@@H](CCCCN)C(=O)N[C@H](C(=O)N[C@H](C(=O)N[C@@H](CC(=O)O)C(N)=O)[C@@H](C)O)[C@@H](C)CC)[C@@H](C)O)[C@@H](C)CC)[C@@H](C)CC)[C@@H](C)CC)[C@@H](C)O
As to B1, in the series with GLP-2 receptor [5], the “EC50 Ratio to Teduglutide, CBA” value came to 3.8 fold and the “EC50 [nM], Cell Based Assay (CBA), cells overexpressing the GLP-2 receptor” value was found to be 21.6 nM. For the same molecule, in the series with GLP-2 receptor [6], the “EC50 (nM) Average, GLP2-receptor CBA, 3 independent assays” value came to 1 nM and the “EC50 Ratio to Teduglutide, GLP2-receptor CBA” value is 1.8 fold.

The record behind these values is patent US20200254065A1, “LONG-ACTING GLP-2 ANALOGS” (OPKO Biologics Ltd., priority 2019, published 2020).
